Measurements reported in patent publication US20230202989A1, “COMPOUNDS” (JANSSEN PHARMACEUTICA NV, priority 2020, published 2023).
Read-outs that look alike come from different tables or passages of the source.

What was measured:
[1] = test system: IL-1β; assay: PBMC assay: inhibition of IL-1β release after LPS stimulation (MSD); format: cell-based; conditions: human PBMCs, 100 ng/ml LPS for 6 hrs, MSD, 96 well plates, read-out: IL1β IC50
Summary of the method: (§1)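 TNF (EC50) and IL-1β (IC50) were quantified by MSD in supernatants after 6 h stimulation with 100 ng/ml LPS. Thawed healthy-donor PBMCs, 7.5×10^4 per well, were exposed to 1:3 compound dilutions for 30 min beforehand at 37 °C.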

[2] = test system: TNF; assay: PBMC assay: TNF cytokine levels after LPS stimulation (MSD); format: cell-based; conditions: human PBMCs, 100 ng/ml LPS for 6 hrs
Summary of the method: as §1

| Compound | IC50 ([1]; Homo sapiens, PBMC, 6 h) [nM] | EC50 ([2]; Homo sapiens, PBMC, 6 h) [nM] | IC50 [1] [nM] | EC50 [2] [nM] |
| --- | --- | --- | --- | --- |
| CC(=O)N1C[C@H](O)C[C@H](NC(=O)Cn2nc(C(C)C)c3cc(C(F)(F)F)ccc3c2=O)C1 (single isomer, unassigned) [Final Cpd X150] | 7370 | > 20000 |  |  |
| CO[C@]1(C)C[C@H](NC(=O)Cn2nc(C(C)C)c3cc(C(F)(F)F)ccc3c2=O)C1 [Final Cpd X29, 2-(4-isopropyl-1-oxo-6-(trifluoromethyl)phthalazin-2(1H)-yl)-N-((1s,3s)-3-methoxy-3-methylcyclobutyl)acetamide] | 216 | > 20000 |  |  |
| CC(C)c1nn(CC(=O)N[C@H]2C[C@@](O)(C(F)(F)F)C2)c(=O)c2ccc(C(F)(F)F)cc12 [Final Cpd X119] | 2130 | > 20000 |  |  |
| CC(C)c1nn(CC(=O)Nc2ccc3nncn3c2)c(=O)c2c(F)cc(C(F)(F)F)cc12 [Final Cpd X71] | 751 | > 20000 |  |  |
| CC(C)c1nn(CC(=O)Nc2ccc3nnc(Cl)n3n2)c(=O)c2ccc(C(F)(F)F)cc12 [Final Cpd X63] | 600 | > 20000 |  |  |
| CCc1nn(CC(=O)N[C@H]2C[C@@](C)(O)C2)c(=O)c2ccc(C(F)(F)F)cc12 [Final Cpd 19] | 140 | > 10000 |  |  |
| Cc1cn2cc(NC(=O)Cn3nc(C(C)C)c4cc(C(F)(F)F)ccc4c3=O)ccc2n1 [Final Cpd X27] | 189 | > 20000 |  |  |
| CC(C)c1nn(CC(=O)Nc2ccncn2)c(=O)c2ccc(C3CC3)cc12 [Final Cpd 23] | 287 | 12000 |  |  |
| CC(C)c1nn(CC(=O)Nc2ccc3nc(C(F)F)cn3n2)c(=O)c2ccc(C(F)(F)F)cc12 [Final Cpd X118] | 2130 | > 20000 |  |  |
| CC(C)c1nn(CC(=O)N[C@H]2C[C@@H](C(C)(C)O)C2)c(=O)c2ccc(C(F)(F)F)cc12 [Final Cpd X108] | 1630 | > 20000 |  |  |
| CC(C)c1nn(CC(=O)N[C@@H]2CCc3nncn3C2)c(=O)c2ccc(C(F)(F)F)cc12 [Final Cpd X106] | 1610 | > 20000 |  |  |
| CC(C)c1nn(CC(=O)Nc2ccc3c(C#N)ncn3c2)c(=O)c2ccc(C(F)(F)F)cc12 [Final Cpd X88] | 924 | > 20000 |  |  |
| C[C@]1(O)C[C@@H](NC(=O)Cn2nc(C3(F)CC3)c3cc(C(F)(F)F)ccc3c2=O)C1 [Final Cpd X134] | 3410 | > 20000 |  |  |
| CO[C@H]1CC[C@H](NC(=O)Cn2nc(C(C)C)c3cc(C(F)(F)F)ccc3c2=O)CC1 [Final Cpd X177] | > 20000 | > 20000 |  |  |
| CC(C)c1nn(CC(=O)Nc2nc(Cl)c3nc[nH]c3n2)c(=O)c2ccc(C(F)(F)F)cc12 [Final Cpd X11, N-(6-chloro-9H-purin-2-yl)-2-(4-isopropyl-1-oxo-6-(trifluoromethyl)phthalazin-2(1H)-yl)acetamide] | 105 | > 20000 |  |  |
| Cc1nnc2n1C[C@H](NC(=O)Cn1nc(C(C)C)c3cc(C(F)(F)F)ccc3c1=O)CC2 (single isomer, unassigned) [Final Cpd X163] | 15100 | > 20000 |  |  |
| CC(C)c1nn(CC(=O)N[C@H]2CC[C@@H]2O)c(=O)c2ccc(C(F)(F)F)cc12 [Final Cpd X91] |  |  | 954 | > 20000 |
| CC(C)c1nn(CC(=O)N[C@H]2C[C@@H](O)CN(C)C2)c(=O)c2ccc(C(F)(F)F)cc12 [Final Cpd X122] | 2680 | > 20000 |  |  |
| CC(C)c1nn(CC(=O)N[C@H]2CCc3nncn3C2)c(=O)c2ccc(C(F)(F)F)cc12 [Final Cpd X55] | 460 | > 20000 |  |  |
| CC(C)c1nn(CC(=O)Nc2cc(Br)c3ncnn3c2)c(=O)c2ccc(C(F)(F)F)cc12 [Final Cpd X132] | 3260 | > 20000 |  |  |
| CC(C)c1nn(CC(=O)Nc2ccc3nc(C#N)cn3c2)c(=O)c2ccc(C(F)(F)F)cc12 [Final Cpd X97] | 1120 | > 20000 |  |  |

| Compound | IC50 ([1]; Homo sapiens, PBMC, 6 h) [nM] | EC50 ([2]; Homo sapiens, PBMC, 6 h) [nM] | IC50 [1] [nM] | EC50 [2] [nM] |
| --- | --- | --- | --- | --- |
| CC(C)c1nn(CC(=O)N[C@@H]2CCCC[C@H]2O)c(=O)c2ccc(C(F)(F)F)cc12 [Final Cpd X98] | 1150 | > 20000 |  |  |
| COC(C)c1nn(CC(=O)Nc2ccncn2)c(=O)c2ccc(C(F)(F)F)cc12 (stereo not shown) [Final Cpd X111] | 1700 | 7930 |  |  |
| COC(c1nn(CC(=O)Nc2ccc3nncn3c2)c(=O)c2ccc(C(F)(F)F)cc12)C(F)(F)F (stereo not shown) [Final Cpd X135] | 3440 | > 20000 |  |  |
| CC(C)CN1CCc2cc(NC(=O)Cn3nc(C(C)C)c4cc(C(F)(F)F)ccc4c3=O)ccc21 [Final Cpd X168] | > 20000 | > 20000 |  |  |
| CC(C)c1nn(CC(=O)Nc2ccc3c(c2)ncn3C)c(=O)c2ccc(C(F)(F)F)cc12 [Final Cpd X141] | 4710 | > 20000 |  |  |
| CCc1nn(CC(=O)Nc2ccncn2)c(=O)c2ccc(C(C)C)cc12 [Final Cpd 6] | 450 | > 10000 |  |  |
| CC(C)c1ccc2c(=O)n(CC(=O)Nc3ccncn3)nc(C(C)C)c2c1 [Final Cpd 35] | 170 | > 10000 |  |  |
| CCN1CCC[C@H](NC(=O)Cn2nc(C(C)C)c3cc(C(F)(F)F)ccc3c2=O)C1=O (single isomer, unassigned) [Final Cpd X129] | 3070 | > 20000 |  |  |
| CCc1nn(CC(=O)N[C@H]2C[C@@](C)(O)C2)c(=O)c2ccc(C(C)C)cc12 [Final Cpd 20] | 240 | > 10000 |  |  |
| CC(C)c1nn(CC(=O)Nc2ccc3ncnn3c2)c(=O)c2ccc(C(F)(F)F)cc12 [Final Cpd X38] | 331 | > 20000 |  |  |
| CC(C)c1nn(CC(=O)NC2CC(C(F)(F)F)C2)c(=O)c2ccc(C(F)(F)F)cc12 (stereo not shown) [Final Cpd X77] | 830 | > 20000 |  |  |
| CC(C)c1nn(CC(=O)Nc2nc(Cl)c3ncn(C)c3n2)c(=O)c2ccc(C(F)(F)F)cc12 [Final Cpd X96] | 1110 | > 20000 |  |  |
| CC(C)c1nn(CC(=O)Nc2ccn(C)c(=O)n2)c(=O)c2ccc(C(F)(F)F)cc12 [Final Cpd X112] | 1730 | > 20000 |  |  |
| COc1ccc2c(=O)n(CC(=O)Nc3ccncn3)nc(C(C)C)c2c1 [Final Cpd 10, 2-(4-isopropyl-6-methoxy-1-oxo-phthalazin-2-yl)-N-pyrimidin-4-yl-acetamide] | 2320 | > 10000 |  |  |
| C[C@]1(O)C[C@@H](NC(=O)Cn2nc(C(O)C(F)(F)F)c3cc(C(F)(F)F)ccc3c2=O)C1 (stereo partly shown) [Final Cpd X84] | 911 | > 20000 |  |  |
| CC(C)c1nn(CC(=O)Nc2ccc3cn(C)nc3c2)c(=O)c2ccc(C(F)(F)F)cc12 [Final Cpd X123] | 2700 | > 20000 |  |  |
| CC(C)c1nn(CC(=O)Nc2cnc3nccn3c2)c(=O)c2ccc(C(F)(F)F)cc12 [Final Cpd X73] | 792 | > 20000 |  |  |
| CCc1nn(CC(=O)N[C@H]2C[C@@](C)(O)C2)c(=O)c2ccc(C3CC3)cc12 [Final Cpd 21] | 290 | > 10000 |  |  |
| O=C(Cn1nc(C2CC2)c2cc(C(F)(F)F)ccc2c1=O)N[C@H]1CN(C2CC2)CC[C@H]1O [Final Cpd X45] | 384 | > 20000 |  |  |
| CC(O)c1nn(CC(=O)N[C@H]2C[C@@](C)(O)C2)c(=O)c2ccc(C(F)(F)F)cc12 (stereo partly shown) [Final Cpd X75] | 818 | > 20000 |  |  |
| CC(C)c1nn(CC(=O)Nc2ccc(=O)n(CCN(C)C)n2)c(=O)c2ccc(C(F)(F)F)cc12 [Final Cpd X40] | 349 | > 20000 |  |  |

More lines, now with the values ahead:

| IC50 ([1]; Homo sapiens, PBMC, 6 h) [nM] | EC50 ([2]; Homo sapiens, PBMC, 6 h) [nM] | IC50 [1] [nM] | EC50 [2] [nM] | Compound |
| --- | --- | --- | --- | --- |
| 422 | > 20000 |  |  | CC(C)c1nn(CC(=O)Nc2ccc3nncn3c2)c(=O)c2ccc(N(C)C)cc12 [X-1046] |
| 1400 | > 20000 |  |  | Cn1nc(NC(=O)Cn2nc(C3CC3)c3cc(Cl)ccc3c2=O)ccc1=O [X-1072] |
| 398 | > 20000 |  |  | O=C(Cn1nc(C2CC2)c2cc(Cl)ccc2c1=O)Nc1ccc2nncn2c1 [X-1071] |
| 990 | > 20000 |  |  | CC(C)c1nn(CC(=O)Nc2ccncn2)c(=O)c2ccc(C(C)(C)C)cc12 [X-1050] |
| 60 | > 20000 |  |  | CC(C)c1nn(CC(=O)N[C@H]2C[C@@](C)(O)C2)c(=O)c2ccc(Cl)cc12 [X-1027] |
| 45 | 2830 |  |  | CC(C)c1ccc2c(=O)n(CC(=O)Nc3ccc4nncn4n3)nc(C(C)C)c2c1 [X-1009] |
| 1910 | 17500 |  |  | COC(C)(C)c1ccc2c(=O)n(CC(=O)Nc3ccc4nncn4c3)nc(C(C)C)c2c1 [X-1057] |
| 3180 | > 20000 |  |  | CC(C)c1nn(CC(=O)Nc2ccnnc2)c(=O)c2ccc(C(F)(F)C(F)(F)F)cc12 [X-1053] |
| 453 | > 20000 |  |  | O=C(Cn1nc(C2CC2)c2cc(Cl)ccc2c1=O)Nc1ccc2nncn2n1 [X-1002] |
| 1610 | 14000 |  |  | COC(C)c1ccc2c(=O)n(CC(=O)Nc3ccncn3)nc(C(C)C)c2c1 (stereo not shown) [X-1056] |
| 2420 | > 20000 |  |  | COC(C)(C)c1ccc2c(=O)n(CC(=O)Nc3ccncn3)nc(C(C)C)c2c1 [X-1059] |
| 426 | > 20000 |  |  | CC(C)c1nn(CC(=O)N[C@H]2C[C@@](C)(O)C2)c(=O)c2ccc(C(C)(C)C)cc12 [X-1049] |
| 143 | > 20000 |  |  | CC(C)c1nn(CC(=O)Nc2cn3cnnc3cn2)c(=O)c2ccc(C(C)(F)F)cc12 [X-1085] |
| 406 | > 20000 |  |  | C[C@]1(O)C[C@@H](NC(=O)Cn2nc(C3CC3)c3cc(Cl)ccc3c2=O)C1 [X-1070] |
| 153 | > 20000 |  |  | Cc1nccc(NC(=O)Cn2nc(C(C)C)c3cc(C4(F)CC4)ccc3c2=O)c1F [X-1075] |
| 41 | > 20000 |  |  | CC(C)c1nn(CC(=O)Nc2ccc3nncn3c2)c(=O)c2ccc(Cl)cc12 [X-1029] |
| 15 | 2130 |  |  | CC(C)c1nn(CC(=O)Nc2ccc3nncn3n2)c(=O)c2ccc(C3(F)CC3)cc12 [X-1007] |
